Experimental data reported in paper PMC4383465 (European journal of pharmacology, 2014).
“And” between values parts separate entries of the source, which are not always exact repeats. Identical values can stand only once. Marks after values point to notes of the source that are not given here.

Assays:
[1] = target: cannabinoid type-1 receptors endogenously expressed in Neuro2A cells (Mus musculus, UniProt P47746); assay: Intracellular cAMP levels; assay type: cell-based; details: for CB1R intrinsic activity: modulation of AC-activity compared to full agonist CP-55,940; for effect on intracellular cAMP compared to basal levels: 10 μM
Sequence of cannabinoid type-1 receptors endogenously expressed in Neuro2A cells (P47746 whole entry): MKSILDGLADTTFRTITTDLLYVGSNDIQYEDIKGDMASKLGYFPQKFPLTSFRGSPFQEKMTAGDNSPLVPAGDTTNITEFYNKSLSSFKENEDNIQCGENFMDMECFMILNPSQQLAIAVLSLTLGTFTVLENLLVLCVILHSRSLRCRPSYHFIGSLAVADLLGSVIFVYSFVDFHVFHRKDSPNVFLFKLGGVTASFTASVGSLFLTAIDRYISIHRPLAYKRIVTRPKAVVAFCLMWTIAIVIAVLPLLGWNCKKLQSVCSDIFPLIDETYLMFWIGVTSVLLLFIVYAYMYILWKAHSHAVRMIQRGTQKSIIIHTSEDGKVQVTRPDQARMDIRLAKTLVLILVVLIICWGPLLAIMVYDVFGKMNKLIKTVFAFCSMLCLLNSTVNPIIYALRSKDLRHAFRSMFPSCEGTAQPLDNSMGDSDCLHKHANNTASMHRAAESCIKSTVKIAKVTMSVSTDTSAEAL

[2] = target: human cannabinoid type-2 receptors stably expressed in CHO-hCB2 cells (Homo sapiens, UniProt P34972); assay: Intracellular cAMP levels; assay type: cell-based; details: for CB2R intrinsic activity: modulation of AC-activity compared to full agonist CP-55,940
Sequence of human cannabinoid type-2 receptors stably expressed in CHO-hCB2 cells (P34972 whole entry): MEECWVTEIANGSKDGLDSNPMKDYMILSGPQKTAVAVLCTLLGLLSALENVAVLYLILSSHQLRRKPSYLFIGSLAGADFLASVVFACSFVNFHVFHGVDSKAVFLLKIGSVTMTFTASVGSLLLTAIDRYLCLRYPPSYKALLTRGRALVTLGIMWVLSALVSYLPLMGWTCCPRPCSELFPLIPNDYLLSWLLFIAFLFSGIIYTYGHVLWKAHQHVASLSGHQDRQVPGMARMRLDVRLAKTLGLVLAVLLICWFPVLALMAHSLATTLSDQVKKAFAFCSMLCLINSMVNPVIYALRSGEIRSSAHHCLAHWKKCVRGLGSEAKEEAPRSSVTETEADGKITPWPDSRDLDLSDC

[3] = target: human cannabinoid type-2 receptors (Homo sapiens, UniProt P34972); assay type: binding; details: for Selectivity CB1/CB2: CB1-Ki value divided CB2-Ki value
Sequence of human cannabinoid type-2 receptors (P34972 whole entry): as above

[4] = target: cannabinoid type-1 receptors (Mus musculus, UniProt P47746); details: read-out: [3H]CP binding Ki, ref Brents et al., 2011; cited from earlier work
Sequence of cannabinoid type-1 receptors (P47746 whole entry): as the sequence (P47746 whole entry) above

[5] = after oral delivery, plasma; ref Al-Ghananeem et al., 2007; cited from earlier work
[6] = up to a dose of 120 mg/kg; ref Geng et al., 2009; cited from earlier work

SMILES | CB1R intrinsic activity [1] | effect on intracellular cAMP compared to basal levels ([1]; screen, Neuro2A cells) | CB2R intrinsic activity [2] | increase in cAMP concentrations above basal levels ([2]; screen, 10 μM, CHO-hCB2 cells) | Selectivity CB1/CB2 [3] | reduction in intracellular cAMP levels when administered alone ([1]; EC90 concentration (10 nM), Neuro2A cells) | Adenylyl Cyclase Inhibition Imax (% Inhibition) ([1]; concentration-effect curve, intact Neuro2A cells, 10 μM forskolin) | decrease in intracellular cAMP levels ([1]; screen, 1 μM, Neuro2A cells) | Ki [4] [nM] | AUC [5] [ng·kg·min/mL/mg] | average Cmax [5] | acute toxicity [6] | selectivity for binding to cannabinoid type-2 relative to type-1 receptors [3] [fold] | intrinsic activity from full concentration-effect curves ([2]; CHO-hCB2 cells) | Adenylyl Cyclase Inhibition Imax (% Inhibition) ([2]; concentration-effect curve, intact CHO-hCB2 cells, negative = increase in cAMP)
COC(=O)c1ccc(Cn2cc(/C=C3/C(=O)C4CCN3CC4)c3ccccc32)cc1 [Compound 4] | Inverse Agonist | significant elevations in intracellular cAMP above basal levels | Inverse Agonist | 278 +/− 38.6% | 1.62 |  |  |  |  |  |  |  |  |  | 
CCCCCCC(C)(C)c1ccc([C@@H]2C[C@H](O)CC[C@H]2CCCO)c(O)c1 [CP-55,940, reference compound] | Agonist |  |  |  |  | 45.7 +/− 3.7% | 42.4±3.8 % Inhibition and 42.4 ± 3.8^a % Inhibition | 64.1 +/− 1.6% | 0.26 ± 0.1 |  |  |  |  |  | 
OC1/C(=C/c2cn(Cc3ccccc3)c3ccccc23)N2CCC1CC2 (centres unmarked) [Compound 8, (Z)-2-((1-benzyl-1H-indol-3-yl)methylene)quinuclidin-3-ol] | Neutral Antagonist | did not significantly alter cAMP concentrations | Agonist |  |  |  |  |  |  | 3561 ± 670 | 1,710 ± 503 ng/ml | did not produce any acute toxicity | 10 |  | 
O=C1/C(=C/c2cn(Cc3ccc(Cl)cc3)c3ccccc23)N2CCC1CC2 [Compound 1] | Neutral Antagonist | did not significantly alter cAMP concentrations | Agonist |  | 1.56 |  |  |  |  |  |  |  |  | full agonists | 63.0 ± 5.2^a,b % Inhibition
